In patent US20230017532A1 (Hoffmann-La Roche Inc., priority 2018, published 2023):
Structures can show the parent of a compound that is named as a salt.

What follows are compounds tested on Acinetobacter baumannii ATCC17978 (assay: Antimicrobial susceptibility testing: 90% growth inhibitory concentration (IC90) determination, Iso-Sensitest broth, OD 600 nm). Conditions: 90% growth inhibitory concentration, Acinetobacter baumannii ATCC17978, Iso-Sensitest broth, OD 600 nm over 16 h; read-out: ATCC 17978 IC90.
Assay type: cell-based
Experimental: Antimicrobial Susceptibility Testing:
90% Growth Inhibitory Concentration (IC90) Determination
The in vitro antimicrobial activity of the compounds was determined according to the following procedure:
The assay used a 10-points Iso-Sensitest broth medium to measure quantitatively the in vitro activity of the compounds against Acinetobacter baumannii ATCC17978 and Acinetobacter baumannii ATCC17961.
Stock compounds in DMSO were serially twofold diluted (e.g. range from 50 to 0.097 μM final concentration) in 384 wells microtiter plates and inoculated with 49 μl the bacterial suspension in Iso-Sensitest medium to have a final cell concentration of ˜5×10^(5) CFU/ml in a final volume/well of 50 ul/well. Microtiter plates were incubated at 35±2° C.
Bacterial cell growth was determined with the measurement of optical density at λ=600 nm each 20 minutes over a time course of 16 h. Growth inhibition was calculated during the logarithmic growth of the bacterial cells with determination of the concentration inhibiting 50% (IC50) and 90% (IC90) of the growth.
Table 1 provides the 90% growth inhibitory concentrations (IC90) in micromoles per liter of the compounds of present invention obtained against the strain Acinetobacter baumannii ATCC17978 and Acinetobacter baumannii ATCC17961.
With `COc1ccc(-c2cnc3c(Nc4ccc(C(=O)NCCOCCN5CCNCC5)c(C)c4)nccn23)cc1` [Example 44, 4-[[3-(4-methoxyphenyl)imidazo[1,2-a]pyrazin-8-yl]amino]-2-methyl-N-[2-(2-piperazin-1-ylethoxy)ethyl]benzamide;dihydrochloride] the IC90 was 460 nM. In the case of `CCc1cc(Nc2nccn3c(-c4ccc(OCC#N)c(F)c4F)cnc23)ccc1C(=O)NCCOCCN` [Example 85, N-[2-(2-aminoethoxy)ethyl]-4-[[3-[4-(cyano-methoxy)-2,3-difluorophenyl]imidazo[1,2-a]pyrazin-8-yl]amino]-2-ethyl-benzamide;2,2,2-trifluoroacetic acid], the IC90 is reported as 55 nM.

Same assay, conditions: Acinetobacter baumannii, ATCC17978, 16 h, 90% growth inhibitory concentration, Acinetobacter baumannii ATCC17978, Iso-Sensitest broth, OD 600 nm over 16 h; read-out: ATCC 17978 IC90
For `COc1ccc(-c2cnc3c(Nc4ccc(C(=O)N(C)CCOCCN5CCNC(C(=O)O)C5)c(C)c4)nccn23)cc1F` (centres unmarked) [Example 166, 4-[2-[2-[[4-[[3-(3-fluoro-4-methoxyphenyl)imidazo[1,2-a]pyrazin-8-yl]amino]-2-methylbenzoyl]-methylamino]ethoxy]ethyl]piperazine-2-carboxylic acid; hydrochloride], the IC90 was 4700 nM. `COc1ccc(-c2cnc3c(Nc4ccc(C(=O)N(C)CCOCCN5CCS(=O)(=O)CC5)c(C)c4)nccn23)cc1F` [Example 110, N-[2-[2-(1,1-dioxo-1,4-thiazinan-4-yl)ethoxy]ethyl]-4-[[3-(3-fluoro-4-methoxyphenyl)imidazo[1,2-a]pyrazin-8-yl]amino]-N,2-dimethyl-benzamide] gave an IC90 of 530 nM. `COc1ccc(-c2cnc3c(Nc4ccc(C(=O)NCCOCCN5CCOC(CN)C5)c(C)c4)nccn23)cc1F` (centres unmarked) [Example 111, N-[2-[2-[2-(aminomethyl)morpholin-4-yl]ethoxy]ethyl]-4-[[3-(3-fluoro-4-methoxyphenyl)imidazo[1,2-a]pyrazin-8-yl]amino]-2-methylbenzamide; hydrochloride] showed an IC90 of 560 nM. `COC(=O)COCCOCCNC(=O)c1ccc(Nc2nccn3c(-c4ccc(OC(F)F)cc4)cnc23)cc1C` [Example 156, methyl 2-[2-[2-[[4-[[3-[4-(difluoro-methoxy)phenyl]imidazo [1,2-a]pyrazin-8-yl]amino]-2-methylbenzoyl]amino]ethoxy]ethoxy]acetate] was tested, and the IC90 was 2400 nM. `COc1ccc(-c2cnc3c(Nc4ccc(C(=O)NCCSCCN)c(C)c4)nccn23)cc1F` [Example 25, N-(2-((2-aminoethyl)thio)ethyl)-4-((3-(3-fluoro-4-methoxyphenyl)imidazo[1,2-a]pyrazin-8-yl)amino)-2-methylbenzamide] gave an IC90 of 150 nM. With `COc1ccc(-c2cnc3c(Nc4ccc(C(=O)NCCOCCNCC(F)F)c(C)c4)nccn23)cc1` [Example 41, N-(2-(2-((2,2-difluoroethyl)amino)ethoxy)ethyl)-4-((3-(4-methoxyphenyl)imidazo[1,2-a]pyrazin-8-yl)amino)-2-methylbenzamide] the IC90 was 450 nM. For `CCc1cc(Nc2nccn3c(-c4ccc(OCC#N)c(F)c4Cl)cnc23)ccc1C(=O)NCCOCCN(C)C` [Example 22, 4-[[3-[2-chloro-4-(cyanomethoxy)-3-fluoro-phenyl]imidazo[1,2-a]pyrazin-8-yl]amino]-N-[2-[2-(dimethylamino)ethoxy]ethyl]-2-ethyl-benzamide], the IC90 was 67 nM. In the case of `CCc1cc(Nc2nccn3c(-c4ccc(OC)c(F)c4F)cnc23)ccc1C(=O)NCCCNCC[C@H](N)C(=O)O` [Example 183, (2S)-2-amino-4-[3-[[4-[[3-(2,3-difluoro-4-methoxyphenyl)imidazo[1,2-a]pyrazin-8-yl]amino]-2-ethyl-benzoyl]amino]propylamino] butanoic acid; formic acid], the IC90 is reported as 660 nM. `COc1ccc(-c2cnc3c(Nc4ccc(C(=O)NCCOCCN(C)C)c(Cl)c4)nccn23)c(F)c1F` [Example 2, 2-chloro-4-[[3-(2,3-difluoro-4-methoxy-phenyl)imidazo[1,2-a]pyrazin-8-yl]amino]-N-[2-[2-(dimethylamino)ethoxy]ethyl]benzamide;2,2,2-trifluoroacetic acid] showed an IC90 of 120 nM. `COc1ccc(-c2cnc3c(Nc4ccc(C(=O)NCCCNCC[C@H](N)C(=O)O)c(C)c4)nccn23)c(F)c1F` [Example 187, (2S)-2-amino-4-[3-[[4-[[3-(2,3-difluoro-4-methoxyphenyl)imidazo[1,2-a]pyrazin-8-yl]amino]-2-methyl-benzoyl]amino]propylamino] butanoic acid] was tested, and the IC90 was 1100 nM. `CN(CCOCCN1CCC(C(=O)O)CC1)C(=O)c1ccc(Nc2nccn3c(-c4ccc(OCC#N)c(F)c4F)cnc23)cc1Cl` [Example 175, 1-[2-[2-[[2-chloro-4-[[3-[4-(cyanomethoxy)-2,3-difluorophenyl]imidazo[1,2-a]pyrazin-8-yl]amino]benzoyl]-methylamino]ethoxy]ethyl] piperidine-4-carboxylic acid; formic acid] was tested, and the IC90 was 1100 nM. `Cc1cc(Nc2nccn3c(-c4ccc(OC(F)F)cc4)cnc23)ccc1C(=O)NCCOCCN1CCC(O)CC1` [Example 81, 4-[[3-[4-(difluoromethoxy)phenyl]imidazo [1,2-a]pyrazin-8-yl]amino]-N-[2-[2-(4-hydroxy-piperidin-1-yl)ethoxy]ethyl]-2-methylbenzamide] gave an IC90 of 340 nM. `COc1ccc(-c2cnc3c(Nc4ccc(C(=O)N(C)CCOCCN5CCN(C=O)CC5)c(C)c4)nccn23)cc1F` [Example 140, 4-[[3-(3-fluoro-4-methoxyphenyl)imidazo[1,2-a]pyrazin-8-yl]amino]-N-[2-[2-(4-formylpiperazin-1-yl)ethoxy]ethyl]-N,2-dimethyl-benzamide] showed an IC90 of 1000 nM. `CCc1cc(Nc2nccn3c(-c4ccc(OC)c(F)c4F)cnc23)ccc1C(=O)NCCOCCN` [Example 86] was tested, and the IC90 was 50 nM. `COc1ccc(-c2cnc3c(Nc4ccc(C(=O)NCCOCC(=O)N5CCOC(CN)C5)c(C)c4)nccn23)cc1F` (centres unmarked) [Example 135, N-[2-[2-[2-(aminomethyl)morpholin-4-yl]-2-oxoethoxy]ethyl]-4-[[3-(3-fluoro-4-methoxyphenyl)imidazo[1,2-a]pyrazin-8-yl]amino]-2-methylbenzamide; hydrochloride] showed an IC90 of 820 nM. Work on `Cc1cc(Nc2nccn3c(-c4ccc(OC(F)F)cc4)cnc23)ccc1C(=O)NCCOCCOCCOCCOCCO` [Example 155, 4-[[3-[4-(difluoro-methoxy)phenyl]imidazo [1,2-a]pyrazin-8-yl]amino]-N-[2-[2-[2-[2-(2-hydroxyethoxy)ethoxy]ethoxy]ethoxy]ethyl]-2-methylbenzamide] yielded an IC90 of 2300 nM. `CCc1cc(Nc2nccn3c(-c4ccc(OC)c(F)c4F)cnc23)ccc1C(=O)NCCCNCCCN` [Example 184, N-[3-(3-aminopropyl-amino)propyl]-4-[[3-(2,3-difluoro-4-methoxyphenyl)imidazo[1,2-a]pyrazin-8-yl]amino]-2-ethyl-benzamide;2,2,2-trifluoroacetic acid] was tested, and the IC90 was 590 nM. With `COc1ccc(-c2cnc3c(Nc4ccc(C(=O)NCCOCCN)c(Cl)c4)nccn23)cc1` [Example 6, N-(2-(2-aminoethoxy)ethyl)-2-chloro-4-((3-(4-methoxyphenyl)imidazo[1,2-a]pyrazin-8-yl)amino)benzamide hydrochloride] the IC90 was 120 nM. For `COc1ccc(-c2cnc3c(Nc4ccc(C(=O)N(C)CCOCCN5CCNCC5)c(C)c4)nccn23)cc1` [Example 133, formic acid; 4-[[3-(4-methoxyphenyl)imidazo[1,2-a]pyrazin-8-yl]amino]-N,2-dimethyl-N-[2-(2-piperazin-1-ylethoxy)ethyl] benzamide], the IC90 was 790 nM. With `Cc1cc(Nc2nccn3c(-c4ccc(OC(F)F)cc4)cnc23)ccc1C(=O)NCCOCCNC=O` [Example 94, 4-[[3-[4-(difluoromethoxy)phenyl]imidazo [1,2-a]pyrazin-8-yl]amino]-N-[2-(2-formamidoethoxy)ethyl]-2-methylbenzamide] the IC90 was 280 nM. Work on `COc1ccc(-c2cnc3c(Nc4ccc(C(=O)NCCOCCNCCO)c(C)c4)nccn23)cc1` [Example 40, N-(2-(2-((2-hydroxyethyl)amino)ethoxy)ethyl)-4-((3-(4-methoxyphenyl)imidazo[1,2-a]pyrazin-8-yl)amino)-2-methylbenzamide] yielded an IC90 of 210 nM. Work on `COc1ccc(-c2cnc3c(Nc4ccc(C(=O)N(C)CCOCCN5CCNCC5)c(C)c4)nccn23)cc1F` [Example 131, 4-[[3-(3-fluoro-4-methoxyphenyl)imidazo[1,2-a]pyrazin-8-yl]amino]-N,2-dimethyl-N-[2-(2-piperazin-1-ylethoxy)ethyl]benzamide] yielded an IC90 of 770 nM. `CCc1cc(Nc2nccn3c(-c4ccc(OC)c(F)c4F)cnc23)ccc1C(=O)NCCCCNCC(=O)O` [Example 197, (4-(4-((3-(2,3-difluoro-4-methoxyphenyl)imidazo[1,2-a]pyrazin-8-yl)amino)-2-ethylbenzamido)butyl)glycine hydrochloride] gave an IC90 of 370 nM. Work on `Cc1cc(Nc2nccn3c(-c4ccc(OC(F)F)cc4)cnc23)ccc1C(=O)NCCOCCN1CCC2(COC2)C1` [Example 83, 4-[[3-[4-(difluoromethoxy)phenyl]imidazo [1,2-a]pyrazin-8-yl]amino]-2-methyl-N-[2-[2-(2-oxa-7-azaspiro [3.4]octan-7-yl)ethoxy]ethyl]benzamide] yielded an IC90 of 640 nM.
